This passage reports Ki results from ChEMBL document CHEMBL1153448, “Diether derivatives of homo- or substituted piperidines as non-imidazole histamine H3 receptor ligands” (Bioorg Med Chem, 2009).

The structures appear in SMILES notation.

Sequence of Histamine H3 receptor (Rattus norvegicus, UniProt Q9QYN8) (Q9QYN8 whole entry): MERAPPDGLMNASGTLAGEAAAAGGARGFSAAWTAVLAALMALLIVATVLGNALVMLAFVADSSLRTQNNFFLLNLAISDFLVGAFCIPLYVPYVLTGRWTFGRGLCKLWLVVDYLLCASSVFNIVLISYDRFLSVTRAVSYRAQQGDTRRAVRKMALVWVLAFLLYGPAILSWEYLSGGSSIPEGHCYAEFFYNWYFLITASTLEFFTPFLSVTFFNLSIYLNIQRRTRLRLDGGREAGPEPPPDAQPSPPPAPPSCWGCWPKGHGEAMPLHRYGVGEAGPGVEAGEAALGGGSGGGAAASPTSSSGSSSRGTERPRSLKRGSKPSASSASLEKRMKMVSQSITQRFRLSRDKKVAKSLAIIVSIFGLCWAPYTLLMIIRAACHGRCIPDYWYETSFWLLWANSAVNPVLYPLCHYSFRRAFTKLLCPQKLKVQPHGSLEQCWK

The first assay has as its target Histamine H3 receptor (Rattus norvegicus, UniProt Q9QYN8). The experiment in a line: Binding affinity to histamine H3 receptor in rat cerebral cortex. It counts as tissue-based.
For `Clc1ccc(CCCOCCCN2CCCCC2)cc1` [PITOLISANT], the affinity corresponds to a Ki of 17 nM.

The target of another assay is Histamine H3 receptor (Homo sapiens, UniProt Q9Y5N1). The experiment in a line: Displacement of [125I]Iodoproxyfran from human histamine H3 receptor expressed in HEK293 cells. It counts as cell-based.
Sequence of Histamine H3 receptor (Homo sapiens, UniProt Q9Y5N1) (Q9Y5N1 whole entry): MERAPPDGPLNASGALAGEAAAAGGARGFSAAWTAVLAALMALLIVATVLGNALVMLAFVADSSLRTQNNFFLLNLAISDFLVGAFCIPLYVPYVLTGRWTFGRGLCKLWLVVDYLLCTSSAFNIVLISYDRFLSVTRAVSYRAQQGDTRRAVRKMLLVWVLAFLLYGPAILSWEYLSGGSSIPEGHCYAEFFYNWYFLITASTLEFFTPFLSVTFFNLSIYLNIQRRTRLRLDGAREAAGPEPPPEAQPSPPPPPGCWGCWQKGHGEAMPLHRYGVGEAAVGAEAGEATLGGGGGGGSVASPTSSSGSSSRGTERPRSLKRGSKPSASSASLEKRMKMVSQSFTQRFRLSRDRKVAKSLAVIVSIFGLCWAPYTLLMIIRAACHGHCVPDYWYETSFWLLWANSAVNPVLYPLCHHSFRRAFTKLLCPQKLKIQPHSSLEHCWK
`COc1cccc(OCCCOCCCN2CCC(C)CC2)c1` returned a Ki of 49 nM.
Same read-out and setting: under `COc1cccc(OCCOCCCN2CCCCCC2)c1` stands 7.2 nM; under `CC1CCCN(CCCOCCCOc2ccc(C(C)(C)C)cc2)C1` (stereo not drawn), 12.8 nM; under `CC1CCN(CCCOCCCOc2ccc(Cl)cc2)CC1`, 27.9 nM.
`COc1cccc(OCCOCCCN2CCCC(C)C2)c1` (stereo not drawn) came in with a Ki of 14.8 nM. This Ki is about 1.9-fold lower than that of the compound before.
Compound `CC(C)(C)c1ccc(OCCCOCCCN2CCCCCC2)cc1` gave a Ki of 7.7 nM.
In the case of `CC1CCN(CCCOCCCOc2ccc(C(C)(C)C)cc2)CC1`, the Ki came out at 51 nM.
Consider `COc1cccc(OCCOCCCN2CCC(C)CC2)c1`, for which the inhibition constant Ki was found to be 12.5 nM. Against the preceding compound, the Ki is about 4.1-fold lower.
As to `COc1cccc(OCCCOCCCN2CCCC(C)C2)c1` (stereo not drawn), the Ki stood at 27.3 nM.
With `CC1CCCN(CCCOCCOc2ccc(C(C)(C)C)cc2)C1` (stereo not drawn), the affinity, expressed as Ki, was 62 nM. Against the preceding compound, the Ki is about 2.3-fold higher.
On to `COc1cccc(OCCCOCCCN2CCCCCC2)c1`, for which the affinity, expressed as Ki, was 18.6 nM.
Regarding `CC1CCCN(CCCOCCCOc2ccc(Cl)cc2)C1` (stereo not drawn), the Ki came out at 3.2 nM. This Ki is about 5.8-fold lower than that of the compound before.
